Laboratory results taken from patent US8703776B2 (Cymabay Therapeutics, Inc., priority 2011, dated 2014).

molecular target: T1, human GPR131 (Homo sapiens, UniProt Q8TDU6); experiment: Stimulation of cAMP in stable cell line expressing human GPR131 (FRET cAMP kit); format: cell-based; conditions: 0.5 h; 1.1 μM compound, relative to maximal stimulatory activity of lithocholic acid at 3.3 μM; 30 minutes at 37° C.; read-out: Percent Activity @ 1.1 μM (of 3.3 uM LCA) (%)
T1 construct: expressed in transfected cells
T1 sequence (Q8TDU6 1-330): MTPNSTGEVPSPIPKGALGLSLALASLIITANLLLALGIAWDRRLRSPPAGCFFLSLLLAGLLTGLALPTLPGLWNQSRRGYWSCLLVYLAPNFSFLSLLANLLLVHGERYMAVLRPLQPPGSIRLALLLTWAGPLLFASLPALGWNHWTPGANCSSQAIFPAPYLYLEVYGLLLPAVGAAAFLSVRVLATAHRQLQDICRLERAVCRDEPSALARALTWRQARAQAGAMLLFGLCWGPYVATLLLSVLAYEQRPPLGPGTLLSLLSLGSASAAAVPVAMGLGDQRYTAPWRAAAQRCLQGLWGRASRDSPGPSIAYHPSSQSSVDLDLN
Method: This assay was developed using a stable cell line expressing human GPR131.
To measure cAMP activity in response to GPR131 agonists, GPR131 cells suspended in DMEM/F12 medium with 1 mM IBMX were seeded in 384 well plates at 5000 cells per well. After incubating with test compounds at 37° C. for 30 minutes cAMP was measured using a fluorescene resonance energy transfer cAMP kit from Cis Bio (Bedford, Mass.) according to the manufacturer's instructions. Briefly, cells were lysed, and cAMP levels determined by competitive immunoassay using D2 labeled cAMP, and europium cryptate tagged anti cAMP antibody. Decreases in the FRET signal (fluorescence ratio (665 nm/620 […]) correspond to increases in intracellular cAMP levels.
Activities of test compounds in Table 1 below are expressed as % activity at 1.1 μM compound compared to the maximal stimulatory activity of lithocholic acid (LCA) (determined at 3.3 μM LCA)

| activation at 1.1 µM | SMILES |
| --- | --- |
| 99% | CN(Cc1ccncc1)C(=O)c1cnc(SCc2c(F)cccc2Cl)n1-c1cccc(F)c1 [Compound 564, 2-((2-Chloro-6-fluorobenzyl)thio)-1-(3-fluorophenyl)-N-methyl-N-(pyridin-4-ylmethyl)-1H-imidazole-5-carboxamide] |
| 83% | Cc1nn(C)cc1CN(C)C(=O)c1cnc(COc2c(F)ccc(F)c2F)n1-c1ccc(F)cc1 [Compound 568, N-((1,3-Dimethyl-1H-pyrazol-4-yl)methyl)-1-(4-fluorophenyl)-N-methyl-2-((2,3,6-trifluorophenoxy)methyl)-1H-imidazole-5-carboxamide] |
| 88% | Cc1nn(C)cc1CN(C)C(=O)c1cnc(CSCc2c(F)ccc(F)c2F)n1-c1ccc(F)cc1 [Compound 572, N-((1,3-Dimethyl-1H-pyrazol-4-yl)methyl)-1-(4-fluorophenyl)-N-methyl-2-(((2,3,6-trifluorobenzyl)thio)methyl)-1H-imidazole-5-carboxamide] |
| 99% | CN(Cc1ccnc(Cl)c1)C(=O)c1cnc(SCc2c(F)ccc(F)c2F)n1-c1ccc(F)cc1 [Compound 578, N-((2-Chloropyridin-4-yl)methyl)-1-(4-fluorophenyl)-N-methyl-2-((2,3,6-trifluorobenzyl)thio)-1H-imidazole-5-carboxamide] |
| 96% | Cc1cc(CN(C)C(=O)c2cnc(SCCc3ccc(F)c(Cl)c3)n2-c2ccc(F)cc2)ccn1 [Compound 583] |
| 97% | Cc1cc(CN(C)C(=O)c2c(C)nc(SCc3c(F)ccc(F)c3F)n2-c2ccc(F)cc2)ccn1 [Compound 585, 1-(4-Fluorophenyl)-N-4-dimethyl-N-((2-methylpyridin-4-yl)methyl)-2-((2,3,6-trifluorobenzyl)thio)-1H-imidazole-5-carboxamide] |
| 86% | CN(Cc1ccnc(C(F)(F)F)c1)C(=O)c1cnc(SCc2c(F)ccc(F)c2F)n1-c1ccc(F)cc1 [Compound 587] |
| 82% | CN(Cc1cccnc1)C(=O)c1cnc(SCc2c(F)ccc(F)c2F)n1-c1ccc(F)cc1 [Compound 603, 1-(4-Fluorophenyl)-N-methyl-N-(pyridin-3-ylmethyl)-2-((2,3,6-trifluorobenzyl)thio)-1H-imidazole-5-carboxamide] |
| 98% | Fc1ccc(-n2c(COCc3ccncc3)nnc2SCc2c(F)ccc(F)c2F)cc1 [Compound 606] |
| 93% | CN(Cc1ccncc1)C(=O)c1cnc(SCc2c(F)cccc2C(F)(F)F)n1-c1ccc(F)cc1 [Compound 607, 2-((2-Fluoro-6-(trifluoromethyl)benzyl)thio)-1-(4-fluorophenyl)-N-methyl-N-(pyridin-4-ylmethyl)-1H-imidazole-5-carboxamide] |
| 86% | CN(Cc1ccncc1)C(=O)c1cnc(SCc2ccc(Cl)cc2C(F)(F)F)n1-c1ccc(F)cc1 [Compound 609, 2-((4-Chloro-2-(trifluoromethyl)benzyl)thio)-1-(4-fluorophenyl)-N-methyl-N-(pyridin-4-ylmethyl)-1H-imidazole-5-carboxamide] |

The remaining lines, values behind:

| SMILES | activation at 1.1 µM |
| --- | --- |
| CN(Cc1ccncc1)C(=O)c1cnc(SCc2c(F)cccc2Cl)n1C1CCCCC1 [Compound 565, 2-((2-Chloro-6-fluorobenzyl)thio)-1-cyclohexyl-N-methyl-N-(pyridin-4-ylmethyl)-1H-imidazole-5-carboxamide] | 99% |
| Cc1nn(C)cc1CN(C)C(=O)c1cnc(CSc2c(Cl)cccc2Cl)n1-c1ccc(F)cc1 [Compound 567, 2-(((2,6-Dichlorophenyl)thio)methyl)-N-((1,3-dimethyl-1H-pyrazol-4-yl)methyl)-1-(4-fluorophenyl)-N-methyl-1H-imidazole-5-carboxamide] | 96% |
| Cc1nn(C)cc1CN(C)C(=O)c1cnc(CSc2c(F)c(F)cc(F)c2F)n1-c1ccc(F)cc1 [Compound 569, N-((1,3-Dimethyl-1H-pyrazol-4-yl)methyl)-1-(4-fluorophenyl)-N-methyl-2-(((2,3,5,6-tetrafluorophenyl)thio)methyl)-1H-imidazole-5-carboxamide] | 98% |
| Cc1nn(C)cc1CN(C)C(=O)c1cnc(SCc2ccncc2)n1-c1ccc(F)cc1 [Compound 579, N-((1,3-Dimethyl-1H-pyrazol-4-yl)methyl)-1-(4-fluorophenyl)-N-methyl-2-((pyridine-4-ylmethyl)thio)-1H-imidazole-5-carboxamide] | 85% |
| Cc1cc(CN(C)C(=O)c2cnc(S(=O)(=O)CCc3ccc(F)c(Cl)c3)n2-c2ccc(F)cc2)ccn1 [Compound 586, 2-((3-Chloro-4-fluorophenethyl)sulfonyl)-1-(4-fluorophenyl)-N-methyl-N-((2-methylpyridin-4-yl)methyl)-1H-imidazole-5-carboxamide] | 86% |
| Cc1cc(CN(C)C(=O)c2cnc(I)n2-c2ccc(F)cc2)ccn1 [Compound 589, 1-(4-Fluorophenyl)-2-iodo-N-methyl-N-((2-methylpyridin-4-yl)methyl)-1H-imidazole-5-carboxamide] | 87% |
| Cc1nn(C)cc1CN(C)C(=O)c1cnc(Br)n1-c1ccc(F)cc1 [Compound 590, 2-Bromo-N-((1,3-dimethyl-1H-pyrazol-4-yl)methyl)-1-(4-fluorophenyl)-N-methyl-1H-imidazole-5-carboxamine] | 86% |
| COc1ccc(Cl)c(CSc2ncc(C(=O)N3CCCC3c3ccncc3)n2-c2ccc(F)cc2)c1F (stereo not drawn) [Compound 591, (2-((6-Chloro-2-fluoro-3-methoxybenzyl)thio)-1-(4-fluorophenyl)-1H-imidazol-5-yl)(2-(pyridin-4-yl)pyrrolidin-1-yl)methanone] | 94% |
| Cc1nn(C)cc1CN(C)C(=O)c1cnc(SCc2ccccc2)n1-c1ccc(F)cc1 [Compound 593, 2-(Benzylthio)-N-((1,3-dimethyl-1H-pyrazol-4-yl)methyl)-1-(4-fluorophenyl)-N-methyl-1H-imidazole-5-carboxamide] | 99% |
| COc1ccc(Cl)c(CSc2nnc(C(=O)N(C)Cc3ccncc3)n2-c2ccc(F)cc2)c1F [Compound 594, 5-((6-Chloro-2-fluoro-3-methoxybenzyl)thio)-4-(4-fluorophenyl)-N-methyl-N-(pyridin-4-ylmethyl)-4H-1,2,4-triazole-3-carboxamide] | 98% |
| Cc1ccc(Cl)c(CSc2nnc(C(=O)N(C)Cc3ccncc3)n2-c2ccc(F)cc2)c1F [Compound 595, 5-((6-Chloro-2-fluoro-3-methylbenzyl)thio)-4-(4-fluorophenyl)-N-methyl-N-(pyridin-4-ylmethyl)-4H-1,2,4-triazole-3-carboxamide] | 98% |
| COc1ccc(Cl)c(CSc2ncc(C(=O)N(C)Cc3cn(C)nc3C)n2-c2ccc(F)cc2)c1F [Compound 596, 2-((6-Chloro-2-fluoro-3-methoxybenzyl)thio)-N-((1,3-dimethyl-1H-pyrazol-4-yl)methyl)-1-(4-fluorophenyl)-N-methyl-1H-imidazole-5-carboxamide] | 100% |
| Cc1ccc(Cl)c(CSc2ncc(C(=O)N(C)Cc3cn(C)nc3C)n2-c2ccc(F)cc2)c1F [Compound 597, 2-((6-Chloro-2-fluoro-3-methylbenzyl)thio)-N-((1,3-dimethyl-1H-pyrazol-4-yl)methyl)-1-(4-fluorophenyl)-N-methyl-1H-imidazole-5-carboxamide] | 100% |
